Tests used:
surinam grass = assay: Test B pre/postemergence surinam grass; format: in vivo, Brachiaria decumbens
Procedure, shortened: (§1)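 Herbicidal effect was estimated by eye on a ten-point control scale after plants spent twelve to sixteen days in a greenhouse following soil or foliar treatment. Foliar sprays targeted plants at one to four leaves; all doses were formulated in a non-phytotoxic solvent with surfactant.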

cocklebur = assay: Test B pre/postemergence cocklebur; format: in vivo, Xanthium strumarium
Procedure, shortened: as §1

corn = assay: Test B pre/postemergence corn; format: in vivo, Zea mays
Procedure, shortened: as §1

crabgrass = assay: Test B pre/postemergence crabgrass; format: in vivo, Digitaria sanguinalis
Procedure, shortened: as §1

giant foxtail = assay: Test B pre/postemergence giant foxtail; format: in vivo, Setaria faberii
Procedure, shortened: as §1

morningglory = assay: Test B pre/postemergence morningglory; format: in vivo, Ipomoea hederacea
Procedure, shortened: as §1

pigweed = assay: Test B pre/postemergence pigweed; format: in vivo, Amaranthus retroflexus
Procedure, shortened: as §1

rape = assay: Test B pre/postemergence rape; format: in vivo, Brassica napus
Procedure, shortened: as §1

sugar beet = assay: Test B pre/postemergence sugar beet; format: in vivo, Beta vulgaris
Procedure, shortened: as §1

wheat = assay: Test B pre/postemergence wheat; format: in vivo, Triticum aestivum
Procedure, shortened: as §1

wild oat = assay: Test B pre/postemergence wild oat; format: in vivo, Avena fatua
Procedure, shortened: as §1

purple nutsedge = assay: Test B pre/postemergence purple nutsedge; format: in vivo, Cyperus rotundus
Procedure, shortened: as §1

rice = assay: Test B flood test rice; format: in vivo, Oryza sativa
Procedure, shortened: (§2)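 Each value is a visual injury score relative to controls, with 10 meaning complete control and 0 no effect. Evaluation took place twelve to sixteen days after the 2-leaf-stage plants were treated and kept in the greenhouse.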

smallflower flatsedge = assay: Test B flood test smallflower flatsedge; format: in vivo, Cyperus difformis
Procedure, shortened: as §2

duck salad = assay: Test B flood test duck salad; format: in vivo, Heteranthera limosa
Procedure, shortened: as §2

bamyardgrass = assay: Test B flood test barnyardgrass; format: in vivo, Echinochloa crus-galli
Procedure, shortened: as §2

[1] = Preemergence, Rate 250 g/ha, scale of 0 to 10 where 0 is no effect and 10 is complete control
[2] = Preemergence, Rate 500 g/ha, scale of 0 to 10 where 0 is no effect and 10 is complete control
[3] = Rate 62 g/ha, Postemergence, scale 0 to 10 (0 no effect, 10 complete control)
[4] = Rate 125 g/ha, Postemergence, scale of 0 to 10 where 0 is no effect and 10 is complete control
[5] = Rate 125 g/ha, Preemergence, scale of 0 to 10 where 0 is no effect and 10 is complete control
[6] = Rate 250 g/ha, Postemergence, scale of 0 to 10 where 0 is no effect and 10 is complete control
[7] = Rate 500 g/ha, Postemergence, scale 0 to 10, 0 no effect, 10 complete control
[8] = Preemergence, Rate 62 g/ha, scale of 0 to 10 where 0 is no effect and 10 is complete control
[9] = Rate 62 g/ha, headed Pre-emergence (flood test species), scale 0 to 10 (0 no effect, 10 complete control)
[10] = Rate 125 g/ha, Pre-emergence, flood test species, scale 0 to 10 where 0 is no effect and 10 is complete control
[11] = Rate 250 g/ha, Pre-emergence, flood-test species, scale 0 to 10, 0 is no effect, 10 is complete control
[12] = Rate 500 g/ha, Pre-emergence, flood test species, scale 0 to 10 (0 no effect, 10 complete control)

With `CC(C)N(C(=O)n1oc(=O)n(CC(C)(C)C)c1=O)c1ccc(F)cc1F` [Compound 277] the “B. signalgrass plant response rating” value (surinam grass; [1]) was 10, the “Plant response rating, B. signalgrass” value (surinam grass; [2]) was 10 and the “B. signalgrass plant response rating” value (surinam grass; [3]) was 0. The “B. signalgrass plant response rating” value (surinam grass; [4]) was 0, the “B. signalgrass plant response rating” value (surinam grass; [5]) was 9 and the “Plant response rating, B. signalgrass” value (surinam grass; [6]) was 1. The “B. signalgrass plant response rating” value (surinam grass; [7]) was 3, the “Cocklebur plant response rating” value (cocklebur; [8]) was 0 and the “Cocklebur plant response rating” value (cocklebur; [1]) was 0. For the same compound, the “Plant response rating, Cocklebur” value (cocklebur; [2]) was 0, the “Cocklebur plant response rating” value (cocklebur; [3]) was 0 and the “Cocklebur plant response rating” value (cocklebur; [4]) was 0. The “Cocklebur plant response rating” value (cocklebur; [5]) was 0, the “Plant response rating, Cocklebur” value (cocklebur; [6]) was 1 and the “Cocklebur plant response rating” value (cocklebur; [7]) was 2. The “Corn plant response rating” value (corn; [8]) was 0, the “Corn plant response rating” value (corn; [1]) was 0 and the “Plant response rating, Corn” value (corn; [2]) was 3. The “Corn plant response rating” value (corn; [3]) was 0, the “Corn plant response rating” value (corn; [4]) was 0 and the “Corn plant response rating” value (corn; [5]) was 0. For the same compound, the “Plant response rating, Corn” value (corn; [6]) was 0, the “Corn plant response rating” value (corn; [7]) was 0 and the “Crabgrass plant response rating” value (crabgrass; [8]) was 4. The “Crabgrass plant response rating” value (crabgrass; [1]) was 9, the “Plant response rating, Crabgrass” value (crabgrass; [2]) was 10 and the “Crabgrass plant response rating” value (crabgrass; [3]) was 1. For the same compound, the “Crabgrass plant response rating” value (crabgrass; [4]) was 2, the “Crabgrass plant response rating” value (crabgrass; [5]) was 4 and the “Plant response rating, Crabgrass” value (crabgrass; [6]) was 5. For the same compound, the “Crabgrass plant response rating” value (crabgrass; [7]) was 6, the “Giant foxtail plant response rating” value (giant foxtail; [8]) was 10 and the “Giant foxtail plant response rating” value (giant foxtail; [1]) was 10. For the same compound, the “Plant response rating, Giant foxtail” value (giant foxtail; [2]) was 10, the “Giant foxtail plant response rating” value (giant foxtail; [3]) was 2 and the “Giant foxtail plant response rating” value (giant foxtail; [4]) was 3. For the same compound, the “Giant foxtail plant response rating” value (giant foxtail; [5]) was 10, the “Plant response rating, Giant foxtail” value (giant foxtail; [6]) was 4 and the “Giant foxtail plant response rating” value (giant foxtail; [7]) was 6. For the same compound, the “Morningglory plant response rating” value (morningglory; [8]) was 0, the “Morningglory plant response rating” value (morningglory; [1]) was 0 and the “Plant response rating, Morningglory” value (morningglory; [2]) was 0. For the same compound, the “Morningglory plant response rating” value (morningglory; [3]) was 7, the “Morningglory plant response rating” value (morningglory; [4]) was 8 and the “Morningglory plant response rating” value (morningglory; [5]) was 0. For the same compound, the “Plant response rating, Morningglory” value (morningglory; [6]) was 8, the “Morningglory plant response rating” value (morningglory; [7]) was 9 and the “Redroot pigweed plant response rating” value (pigweed; [1]) was 0. The “Plant response rating, Redroot pigweed” value (pigweed; [2]) was 5, the “Redroot pigweed plant response rating” value (pigweed; [3]) was 1 and the “Redroot pigweed plant response rating” value (pigweed; [4]) was 2. For the same compound, the “Redroot pigweed plant response rating” value (pigweed; [5]) was 0, the “Plant response rating, Redroot pigweed” value (pigweed; [6]) was 4 and the “Redroot pigweed plant response rating” value (pigweed; [7]) was 5. For the same compound, the “Rape plant response rating” value (rape; [1]) was 1, the “Plant response rating, Rape” value (rape; [2]) was 2 and the “Rape plant response rating” value (rape; [3]) was 0. For the same compound, the “Rape plant response rating” value (rape; [4]) was 2, the “Rape plant response rating” value (rape; [5]) was 1 and the “Plant response rating, Rape” value (rape; [6]) was 3. For the same compound, the “Rape plant response rating” value (rape; [7]) was 3, the “Sugarbeets plant response rating” value (sugar beet; [1]) was 2 and the “Plant response rating, Sugarbeets” value (sugar beet; [2]) was 7. For the same compound, the “Sugarbeets plant response rating” value (sugar beet; [3]) was 1, the “Sugarbeets plant response rating” value (sugar beet; [4]) was 2 and the “Sugarbeets plant response rating” value (sugar beet; [5]) was 1. The “Plant response rating, Sugarbeets” value (sugar beet; [6]) was 4, the “Sugarbeets plant response rating” value (sugar beet; [7]) was 5 and the “Wheat plant response rating” value (wheat; [1]) was 0. The “Plant response rating, Wheat” value (wheat; [2]) was 4, the “Wheat plant response rating” value (wheat; [3]) was 0 and the “Wheat plant response rating” value (wheat; [4]) was 0. For the same compound, the “Wheat plant response rating” value (wheat; [5]) was 0, the “Plant response rating, Wheat” value (wheat; [6]) was 0 and the “Wheat plant response rating” value (wheat; [7]) was 0. The “Wild oats plant response rating” value (wild oat; [1]) was 7, the “Plant response rating, Wild oats” value (wild oat; [2]) was 8 and the “Wild oats plant response rating” value (wild oat; [3]) was 0. For the same compound, the “Wild oats plant response rating” value (wild oat; [4]) was 0, the “Plant response rating, Wild oats” value (wild oat; [6]) was 0 and the “Wild oats plant response rating” value (wild oat; [7]) was 2. The “Nutsedge plant response rating” value (purple nutsedge; [8]) was 0, the “Nutsedge plant response rating” value (purple nutsedge; [1]) was 0 and the “Plant response rating, Nutsedge” value (purple nutsedge; [2]) was 0. The “Nutsedge plant response rating” value (purple nutsedge; [3]) was 0, the “Nutsedge plant response rating” value (purple nutsedge; [4]) was 0 and the “Nutsedge plant response rating” value (purple nutsedge; [5]) was 0. The “Plant response rating, Nutsedge” value (purple nutsedge; [6]) was 0, the “Nutsedge plant response rating” value (purple nutsedge; [7]) was 0 and the “Rice plant response rating” value (rice; [9]) was 0. For the same compound, the “Rice plant response rating” value (rice; [10]) was 0, the “Rice plant response rating” value (rice; [11]) was 0 and the “Rice plant response rating” value (rice; [12]) was 2. The “S. Flatsedge plant response rating” value (smallflower flatsedge; [9]) was 0, the “S. Flatsedge plant response rating” value (smallflower flatsedge; [10]) was 0 and the “S. Flatsedge plant response rating” value (smallflower flatsedge; [11]) was 0. For the same compound, the “S. Flatsedge plant response rating” value (smallflower flatsedge; [12]) was 5, the “Ducksalad plant response rating” value (duck salad; [9]) was 1 and the “Ducksalad plant response rating” value (duck salad; [10]) was 2. The “Ducksalad plant response rating” value (duck salad; [11]) was 2, the “Ducksalad plant response rating” value (duck salad; [12]) was 2 and the “Barnyardgrass plant response rating” value (bamyardgrass; [9]) was 2. For the same compound, the “Barnyardgrass plant response rating” value (bamyardgrass; [10]) was 2, the “Barnyardgrass plant response rating” value (bamyardgrass; [11]) was 1 and the “Barnyardgrass plant response rating” value (bamyardgrass; [12]) was 9.

Reference: patent publication US6737383B1, “Herbicidal oxadiazolidines” (priority 1999, dated 2004)
